What was measured:
[1] = Stability under hydrogenation conditions; type: physicochemical
Method: It is important to note that, DFX was stable under hydrogenation conditions (40 bar of H2, 70° C., 24 h), thus it can be used in reactions requiring high pressure of H2, elevated temperature, and/or long reaction time, which is a very desirable property for biomass-derived solvents.
40 bar of H2, 70° C., 24 h • 2. 40 bar of H2, 250° C., 3 h

[2] = Kamlet-Abboud-Taft solvatochromic parameters (dye absorption spectra); type: physicochemical; details: for Kamlet-Taft Parameters Π* / Kamlet-Taft Parameters α / Kamlet-Taft Parameters β: Table 1a
From the text: Determination of the Kamlet-Abboud-Taft parameters was based on the absorption spectrum of two dyes (N,N-diethyl-4-nitroaniline and 4-nitroaniline) in different solvents, that allow calculating corresponding values using known procedures (P. G. Jessop, D. A. Jessop, D. Fu and L. Phan, Green Chem., 2012, 14, 1245-1259).

[3] = Miscibility with different solvents; type: physicochemical; parameters: key: “*” indicating—not miscible; details: Table 1d; blank cell = miscible
[4] = Stability of DFX under basic conditions (GC-FID/GC-MS, colour change); type: physicochemical; parameters: key to Reaction (Y/N): *Reaction (Y/N) means color change compared to blank solution.; *Reaction (Y/N) means color change compared to blank solution
Method: To assess DFX stability under basic conditions, we tested a series of organic and inorganic bases at 80° C. and 110° C. for maximum 48 h (Table 6). Visual color change compared to a blank solution of pure DFX indicated some reactions were occurring. After 0.5 h, 24 h, 48 h of exposure, the samples were injected in GC-FID and GC-MS and the area of DFX was compared with the one in blank sample using decane as the internal standard. As a result of this experiment, we identified some potential limitations of this emerging solvent. Specifically, inorganic bases such as K2CO3, NaOH, CsCO3 led to the highest extent of degradation (maximum 21% after 48 h). Triethylamine (NEt3) caused less than 5% of degradation, but led to the formation of dark solution as well as K2CO3, NaOH, CsCO3. Probably, impurities existing in DFX (95% pure) also contribute to a color change as they could interact with bases.

[5] = Stability under acidic conditions; type: physicochemical
Flash point = type: physicochemical
[6] = Maximum absorbance of Nile Red dye in the solvent; type: physicochemical
Method: The absorbance spectra of 4-nitroaniline dye (cf. FIG. 10a), N,N-diethyl-4-nitroaniline dye (cf. FIG. 10b) as well as of Nile Red dye (cf. FIG. 10c) in the compounds 1, 3, 4 and 24 of claim 13 as well as in DMSO were measured. Nile Red absorbance is dependent on polarity and acidity, but as acidity is 0 in the case of aprotic solvents, the value is only polarity dependent. This differs from π*, which is both polarity and polarizability dependent. The maximum absorbance of Nile Red in 1, 3, 4 and 24 was measured to be 543, 536, 534.5 and 535 nm respectively. […] Values for 3, 4 and 24 are similar to conventional medium polarity aprotic solvents such as dichloromethane (535.2 nm) and acetonitrile (531.6 nm).
The Nile red value for DEX:PG is 553 nm, indicating similar chemical behavior to Methanol (550 nm) and Ethanolamine (557 nm).

[7] = CsCO3 (base cell blank, row r16), 80° C., 0.5 h
[8] = CsCO3 (base cell blank, row r16), 80° C., 24 h
[9] = CsCO3 (base cell blank, row r16), 80° C., 48 h
[10] = CsCO3 (base cell blank, row r17), 110° C., 0.5 h
[11] = CsCO3 (base cell blank, row r17), 110° C., 24 h
[12] = CsCO3 (base cell blank, row r17), 110° C., 48 h
[13] = CsCO3, 110° C. (row r15), 0.5 h

For `C1OC[C@H]2O[C@@H]3OCO[C@@H]3[C@H]2O1` [DFX, Diformylxylose], the “stability under hydrogenation conditions” value ([1]; 40 bar of H2, 70° C., 24 h) was “remained stable”, the “stability under hydrogenation conditions” value ([1]; 40 bar of H2, 250° C., 3 h) was “remained stable” and the “Kamlet-Taft Parameters Π*” value [2] was 0.92. The “Miscibility with Cyclohexane” value [3] was “*”, the “Miscibility with Hexane” value [3] was “*” and the “Miscibility with di-n-butyl ether” value [3] was “*”. The DFX degradation [4, 7] was 1%, the “Reaction (Y/N)” value [4, 7] was “Y” and the DFX degradation [4, 8] was 4%. The “Reaction (Y/N)” value [4, 8] was “Y”, the DFX degradation [4, 9] was 8% and the “Reaction (Y/N)” value [4, 9] was “Y”. For the same compound, the DFX degradation [4, 10] was 1%, the “Reaction (Y/N)” value [4, 10] was “Y” and the DFX degradation [4, 11] was 7%. For the same compound, the “Reaction (Y/N)” value [4, 11] was “Y”, the DFX degradation [4, 12] was 11% and the “Reaction (Y/N)” value [4, 12] was “Y”. The DFX degradation [4, 13] was 3%, the “Reaction (Y/N)” value [4, 13] was “Y” and the DFX degradation ([4]; CsCO3, 110° C. (row r15), 24 h) was 11%. The “Reaction (Y/N)” value ([4]; CsCO3, 110° C. (row r15), 24 h) was “Y”, the DFX degradation ([4]; CsCO3, 110° C. (row r15), 48 h) was 21% and the “Reaction (Y/N)” value ([4]; CsCO3, 110° C. (row r15), 48 h) was “Y”. For the same compound, the DFX degradation ([4]; K2CO3, 80° C., 0.5 h) was 2%, the “Reaction (Y/N)” value ([4]; K2CO3, 80° C., 0.5 h) was “Y” and the DFX degradation ([4]; K2CO3, 80° C., 24 h) was 3%. The “Reaction (Y/N)” value ([4]; K2CO3, 80° C., 24 h) was “Y”, the DFX degradation ([4]; K2CO3, 80° C., 48 h) was 7% and the “Reaction (Y/N)” value ([4]; K2CO3, 80° C., 48 h) was “Y”. The DFX degradation ([4]; K2CO3, 110° C., 0.5 h) was 2%, the “Reaction (Y/N)” value ([4]; K2CO3, 110° C., 0.5 h) was “Y” and the DFX degradation ([4]; K2CO3, 110° C., 24 h) was 5%. The “Reaction (Y/N)” value ([4]; K2CO3, 110° C., 24 h) was “Y”, the DFX degradation ([4]; K2CO3, 110° C., 48 h) was 13% and the “Reaction (Y/N)” value ([4]; K2CO3, 110° C., 48 h) was “Y”. The DFX degradation ([4]; KOAc, 80° C., 0.5 h) was 0%, the “Reaction (Y/N)” value ([4]; KOAc, 80° C., 0.5 h) was “N” and the DFX degradation ([4]; KOAc, 80° C., 24 h) was 2%. For the same compound, the “Reaction (Y/N)” value ([4]; KOAc, 80° C., 24 h) was “N”, the DFX degradation ([4]; KOAc, 80° C., 48 h) was 3% and the “Reaction (Y/N)” value ([4]; KOAc, 80° C., 48 h) was “N”. For the same compound, the DFX degradation ([4]; KOAc, 110° C., 0.5 h) was 1%, the “Reaction (Y/N)” value ([4]; KOAc, 110° C., 0.5 h) was “Y” and the DFX degradation ([4]; KOAc, 110° C., 24 h) was 3%. For the same compound, the “Reaction (Y/N)” value ([4]; KOAc, 110° C., 24 h) was “Y”, the DFX degradation ([4]; KOAc, 110° C., 48 h) was 5% and the “Reaction (Y/N)” value ([4]; KOAc, 110° C., 48 h) was “Y”. For the same compound, the DFX degradation ([4]; NEt3, 80° C., 0.5 h) was 3%, the “Reaction (Y/N)” value ([4]; NEt3, 80° C., 0.5 h) was “Y” and the DFX degradation ([4]; NEt3, 80° C., 24 h) was 4%. The “Reaction (Y/N)” value ([4]; NEt3, 80° C., 24 h) was “Y”, the DFX degradation ([4]; NEt3, 80° C., 48 h) was 5% and the “Reaction (Y/N)” value ([4]; NEt3, 80° C., 48 h) was “Y”. The DFX degradation ([4]; NaOH, 80° C., 0.5 h) was 0%, the “Reaction (Y/N)” value ([4]; NaOH, 80° C., 0.5 h) was “Y” and the DFX degradation ([4]; NaOH, 80° C., 24 h) was 9%. The “Reaction (Y/N)” value ([4]; NaOH, 80° C., 24 h) was “Y”, the DFX degradation ([4]; NaOH, 80° C., 48 h) was 17% and the “Reaction (Y/N)” value ([4]; NaOH, 80° C., 48 h) was “Y”. The DFX degradation ([4]; Pyridine, 80° C., 0.5 h) was 0%, the “Reaction (Y/N)” value ([4]; Pyridine, 80° C., 0.5 h) was “N” and the DFX degradation ([4]; Pyridine, 80° C., 24 h) was 0%. For the same compound, the “Reaction (Y/N)” value ([4]; Pyridine, 80° C., 24 h) was “N”, the DFX degradation ([4]; Pyridine, 80° C., 48 h) was 0% and the “Reaction (Y/N)” value ([4]; Pyridine, 80° C., 48 h) was “N”. The DFX degradation ([4]; Pyridine, 110° C., 0.5 h) was 0%, the “Reaction (Y/N)” value ([4]; Pyridine, 110° C., 0.5 h) was “N” and the DFX degradation ([4]; Pyridine, 110° C., 24 h) was 3%. The “Reaction (Y/N)” value ([4]; Pyridine, 110° C., 24 h) was “Y”, the DFX degradation ([4]; Pyridine, 110° C., 48 h) was 6% and the “Reaction (Y/N)” value ([4]; Pyridine, 110° C., 48 h) was “Y”. The DFX degradation ([4]; Triethylamine (NEt3)) was “less than 5%”, the “DFX degradation, highest extent” value ([4]; inorganic bases K2CO3, NaOH, CsCO3, after 48 h) was ≤ 21% and the DFX recovered ([5]; 0.8M HCl, 70 to 95° C., no formaldehyde) was “more than 80%”. For the same compound, the DFX stable ([5]; 0.8M HCl, formaldehyde added) was “around 90%”.

For `CC1CCCO1` (centres unmarked) [Compound 2-Me-THF], the Flash point (Flash point) was −10 °C.

Work on `COC1CCCC1` [CPME, cyclopentyl methyl ether] yielded a Flash point (Flash point) of −1 °C.

With `CCC1OCC2OC3OC(CC)OC3C2O1` (centres unmarked) [DPX, Dipropylxylose] the “sensitivity to strong acids (visual, orange-colored solution)” value (“sensitivity to strong acids” for short) [5] was “showed sensitivity to strong acids”.

Work on `COC(C)(C)C` [MTBE] yielded a Flash point (Flash point) of −28 °C.

In the case of `CCCC1OC[C@H]2O[C@@H]3OC(CCC)O[C@@H]3[C@H]2O1` (some centres unmarked) [Compound 24], the “Kamlet-Abboud-Taft α” value ([2]; Table 1c) is reported as 0, the “Kamlet-Abboud-Taft β” value ([2]; Table 1c) is reported as 0.56 and the “Kamlet-Abboud-Taft π” value ([2]; Table 1c) is reported as 0.65. The “Miscibility with Water” value [3] was “*”, the “maximum absorbance of Nile Red” value [6] was 535 nm and the melting point was 24.5 °C.

In the case of `CC1CCC(=O)O1` (centres unmarked) [GVL, -valerolactone], the “Kamlet-Taft Parameters Π*” value [2] is reported as 0.83, the “Kamlet-Taft Parameters α” value [2] is reported as 0.00 and the “Kamlet-Taft Parameters β” value [2] is reported as 0.60. It also gave a Flash point (Flash point) of 96.1 °C.

In the case of `CCCC1OCC2OC3OC(CCC)OC3C2O1` (centres unmarked) [DBX, Dibutylxylose], the “sensitivity to strong acids” value [5] is reported as “showed sensitivity to strong acids”.

In the case of `O=C1CC[C@H]2CO[C@@H]1O2` [Cyrene], the “Kamlet-Taft Parameters Π*” value [2] is reported as 0.93, the “Kamlet-Taft Parameters α” value [2] is reported as 0.00 and the “Kamlet-Taft Parameters β” value [2] is reported as 0.61. For the same compound, the “stability under acidic conditions” value ([5]; 95° C. or 70° C., 0.8M HCl, 15 min) was “extensive degradation” and the Flash point (Flash point) was 108 °C.

In the case of `CC(C)(C)C1OCC2OC3OC(C(C)(C)C)OC3C2O1` (centres unmarked) [DNPX, Dineopentylxylose], the “sensitivity to strong acids” value [5] is reported as “showed sensitivity to strong acids”.

In the case of `CC(C)C1OCC2OC3OC(C(C)C)OC3C2O1` (centres unmarked) [DIBX, Diisobutylxylose], the “sensitivity to strong acids” value [5] is reported as “showed sensitivity to strong acids”.

From patent publication US20240228507A1, “GREEN SOLVENTS FOR CHEMICAL REACTIONS” (ECOLE POLYTECHNIQUE FÉDÉRALE DE LAUSANNE (EPFL), priority 2021, published 2024)
